This assay concerns the target T1, GPR35 (Homo sapiens, UniProt Q9HC97).
T1 construct: expressed in transfected cells; host or cells: CHO-K1 cells co-expressing mitochondrial aequorin and Gα16
The assay is described as follows: cellular GPR35 phospho-ERK HTRF assay (inhibition of lodoxamide-induced phospho-ERK signal). The settings on record: GPR35-CHO-K1-mt aequorin-Gα16 cell line; agonist lodoxamide at EC80; read-out: Activity Group (IC50, inhibition of GPR35 agonist-induced phospho-ERK signal). Type of assay: cell-based. The source says: The functional GPR35 assay as described in the accompanying examples measures the ability of GPR35 modulators to inhibit a GPR35 agonist-induced phospho-ERK signal. This is expressed as the concentration of modulator required to reduce the phospho-ERK signal by 50 percent, i.e. the IC50; the signal window being defined as the difference between agonist plus modulator vehicle (no modulator) and agonist vehicle (no agonist) controls.
The functional assay described measures the ability of GPR35 modulators to inhibit a GPR35 agonist-induced phospho-ERK signal. This is expressed as the concentration of modulator required to reduce the phospho-ERK signal by 50 percent, i.e. the IC50; the signal window being defined as the difference between agonist plus modulator vehicle (no modulator) and agonist vehicle (no agonist) controls.
This assay is a cellular GPR35 phospho-ERK homogeneous time resolved fluorescence (HTRF) assay using the GPR35-CHO-K1-mt aequorin-Gα16 cell line. Upon activation of GPR35 with the agonist lodoxamide at EC80 concentration, ERK 1/2 is phosphorylated, and after lysis of the cell membrane, phospho-ERK1/2 (Thr202/Tyr204) is detected in a sandwich assay using two different specific antibodies, one labelled with Eu^3+-cryptate (donor) and the second with d2 (acceptor). When the dyes are in proximity, the excitation of the donor with a light source (laser or flash lamp) triggers a Fluorescence Resonance Energy Transfer (FRET) towards the acceptor, resulting in specific acceptor fluorescence (at 665 nm). The specific signal is directly proportional to the amount of phospho-ERK1/2 (Thr202/Tyr204) in the sample. Compounds that interfere with the levels of phospho-ERK1/2 (Thr202/Tyr204) will result in a low HTRF signal.

Where only a bound is given, the exact number is not on record here.

T1 sequence (Q9HC97 whole entry): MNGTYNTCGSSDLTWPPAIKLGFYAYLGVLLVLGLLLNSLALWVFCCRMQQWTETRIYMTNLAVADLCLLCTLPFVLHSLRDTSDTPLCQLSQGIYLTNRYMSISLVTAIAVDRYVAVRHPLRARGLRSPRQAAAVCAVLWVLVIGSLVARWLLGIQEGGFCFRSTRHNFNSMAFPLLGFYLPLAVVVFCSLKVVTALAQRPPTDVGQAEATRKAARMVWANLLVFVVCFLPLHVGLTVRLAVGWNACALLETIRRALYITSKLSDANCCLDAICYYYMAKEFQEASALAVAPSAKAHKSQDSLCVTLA

Turning to `O=C(Nc1ccc(OCCc2ccccc2)cc1)c1cccc(-c2ccc(O)c(C(=O)O)c2)c1` [Example 1, 4-Hydroxy-3′-((4-phenethoxyphenyl)carbamoyl)-[1,1′-biphenyl]-3-carboxylic acid], the IC50 was under 1 µM. In the case of `O=C(Nc1ccc(OCCc2ccccc2)cc1)c1cccc(-c2cnc(C3CC3)c(C(=O)O)c2)c1` [Example 2, 2-Cyclopropyl-5-(3-((4-phenethoxyphenyl)carbamoyl)phenyl)nicotinic acid], the IC50 is under 1 µM. Take `O=C(Nc1ccc(OCCc2ccccc2)cc1)c1cccc(-c2c[nH]c(=O)c(C(=O)O)c2)c1` [Example 3, 2-oxo-5-(3-((4-Phenethoxyphenyl)carbamoyl)phenyl)-1,2-dihydropyridine-3-carboxylic acid]: the IC50 is under 1 µM.

For the compound `O=C(Nc1ccc(OCCc2ccccc2)cc1)c1cccc(-c2cnc(C(F)(F)F)c(C(=O)O)c2)c1` [Example 4, 5-(3-((4-Phenethoxyphenyl)carbamoyl)phenyl)-2-(trifluoromethyl)nicotinic acid], the IC50 is under 1 µM. For the compound `O=C(O)c1cncc(-c2cccc(C(=O)Nc3ccc(OCCc4ccccc4)cc3)c2)c1` [Example 5, 5-(3-((4-Phenethoxyphenyl)carbamoyl)phenyl)nicotinic acid], the IC50 is under 1 µM. As to `O=C(O)Cc1cncc(-c2cccc(C(=O)Nc3ccc(OCCc4ccccc4)cc3)c2)c1` [Example 6, 2-(5-(3-((4-Phenethoxyphenyl)carbamoyl)phenyl)pyridin-3-yl)acetic acid], the concentration for half-maximal inhibition (IC50) was under 1 µM. With `O=C(Nc1ccc(OCCc2ccccc2)cc1)c1cccc(-c2ccnc(C(=O)O)n2)c1` [Example 7, 4-(3-((4-Phenethoxyphenyl)carbamoyl)phenyl)pyrimidine-2-carboxylic acid], the IC50 was under 1 µM.

As for `Cc1ccc(-c2cccc(C(=O)Nc3ccc(OCCc4ccccc4)cc3)c2)nc1C(=O)O` [Example 8, 3-Methyl-6-(3-((4-phenethoxyphenyl)carbamoyl)phenyl)picolinic acid], the IC50 is under 1 µM. Consider `Nc1ncc(-c2cccc(C(=O)Nc3ccc(OCCc4ccccc4)cc3)c2)nc1C(=O)O` [Example 9, 3-Amino-6-(3-((4-phenethoxyphenyl)carbamoyl)phenyl)pyrazine-2-carboxylic acid], for which the concentration for half-maximal inhibition (IC50) is under 1 µM.

As to `Cc1ncc(-c2cccc(C(=O)Nc3ccc(OCCc4ccccc4)cc3)c2)nc1C(=O)O` [Example 10, 3-Methyl-6-(3-((4-phenethoxyphenyl)carbamoyl)phenyl)pyrazine-2-carboxylic acid], the 50% inhibitory concentration (IC50) is under 1 µM. For the compound `O=C(Nc1ccc(OCCc2ccccc2)cc1)c1cccc(-c2cnc(F)c(C(=O)O)c2)c1` [Example 11, 2-Fluoro-5-(3-((4-phenethoxyphenyl)carbamoyl)phenyl)nicotinic acid], the IC50 was under 1 µM. As to `Nc1ncc(-c2cccc(C(=O)Nc3ccc(OCCc4ccccc4)cc3)c2)cc1C(=O)O` [Example 12, 2-Amino-5-(3-((4-phenethoxyphenyl)carbamoyl)phenyl)nicotinic acid], the half-inhibitory concentration (IC50) was under 1 µM. For `O=C(O)c1ccnc(-c2cccc(C(=O)Nc3ccc(OCCc4ccccc4)cc3)c2)c1` [Example 13, 2-(3-((4-Phenethoxyphenyl)carbamoyl)phenyl)isonicotinic acid], the concentration for half-maximal inhibition (IC50) is under 1 µM. For `O=C(Nc1ccc(OCCc2ccccc2)cc1)c1cccc(-c2cncc(C(=O)O)n2)c1` [Example 14, 6-(3-((4-Phenethoxyphenyl)carbamoyl)phenyl)pyrazine-2-carboxylic acid] the value was under 1 µM; for `Cc1ncc(-c2cccc(C(=O)Nc3ccc(OCCc4ccccc4)cc3)c2)cc1C(=O)O` [Example 15, 2-Methyl-5-(3-((4-phenethoxyphenyl)carbamoyl)phenyl)nicotinic acid], under 1 µM; for `Nc1ccc(-c2cccc(C(=O)Nc3ccc(OCCc4ccccc4)cc3)c2)cc1C(=O)O` [Example 16, 4-amino-3′-((4-phenethoxyphenyl)carbamoyl)-[1,1′-biphenyl]-3-carboxylic acid], under 1 µM. Consider `COc1ncc(-c2cccc(C(=O)Nc3ccc(OCCc4ccccc4)cc3)c2)cc1C(=O)O` [Example 17, 2-Methoxy-5-(3-((4-phenethoxyphenyl)carbamoyl)phenyl)nicotinic acid], for which the IC50 was under 1 µM.

As for `O=C(Nc1ccc(OCCc2ccccc2)cc1)c1cccc(-c2cccc(C(=O)O)n2)c1` [Example 18, 6-(3-((4-Phenethoxyphenyl)carbamoyl)phenyl)picolinic acid], the half-inhibitory concentration (IC50) was under 1 µM. `O=C(Nc1ccc(OCCc2ccccc2)cc1)c1cccc(-c2cnc(Cl)c(C(=O)O)c2)c1` [Example 19, 2-Chloro-5-(3-((4-phenethoxyphenyl)carbamoyl)phenyl)nicotinic acid]: the half-inhibitory concentration (IC50) was under 1 µM. As for `O=C(O)c1ccc(-c2cccc(C(=O)Nc3ccc(OCCc4ccccc4)cc3)c2)nc1` [Example 20, 6-(3-((4-Phenethoxyphenyl)carbamoyl)phenyl)nicotinic acid], the 50% inhibitory concentration (IC50) is under 1 µM. Take `O=C(Nc1ccc(OCCc2ccccc2)cc1)c1cccc(-c2ccnc(C(=O)O)c2)c1` [Example 21, 4-(3-((4-Phenethoxyphenyl)carbamoyl)phenyl)picolinic acid]: the IC50 was 1 to 10 µM.

Take `O=C(Nc1ccc(OCCc2ccccc2)cc1)c1cccc(-c2nccc(C(=O)O)n2)c1` [Example 22, 2-(3-((4-Phenethoxyphenyl)carbamoyl)phenyl)pyrimidine-4-carboxylic acid]: the IC50 was under 1 µM. On to `O=C(Nc1ccc(OCCc2ccccc2)cc1)c1cccc(-c2ccc(C(=O)O)nc2)c1` [Example 23, 5-(3-((4-Phenethoxyphenyl)carbamoyl)phenyl)picolinic acid], for which the 50% inhibitory concentration (IC50) was in the range of 1 to 10 µM.

Consider `Cc1ccc(C(=O)O)nc1-c1cccc(C(=O)Nc2ccc(OCCc3ccccc3)cc2)c1` [Example 24, 5-Methyl-6-(3-((4-phenethoxyphenyl)carbamoyl)phenyl)picolinic acid], for which the IC50 was under 1 µM. Regarding `Cc1ncc(C(=O)O)cc1-c1cccc(C(=O)Nc2ccc(OCCc3ccccc3)cc2)c1` [Example 25, 6-Methyl-5-(3-((4-phenethoxyphenyl)carbamoyl)phenyl)nicotinic acid], the IC50 lay in the range of 1 to 10 µM. For `O=C(Nc1ccc(OCCc2ccccc2)cc1)c1cccc(-c2ccncc2C(=O)O)c1` [Example 26, 4-(3-((4-Phenethoxyphenyl)carbamoyl)phenyl)nicotinic acid], the IC50 was 1 to 10 µM.

For `Cc1c(C(=O)O)cncc1-c1cccc(C(=O)Nc2ccc(OCCc3ccccc3)cc2)c1` [Example 27, 4-Methyl-5-(3-((4-phenethoxyphenyl)carbamoyl)phenyl)nicotinic acid], the IC50 fell in the range of 1 to 10 µM.

As for `O=C(Nc1ccc(OCCc2ccccc2)cc1)c1cccc(-c2cnnc(C(=O)O)c2)c1` [Example 28, 5-(3-((4-Phenethoxyphenyl)carbamoyl)phenyl)pyridazine-3-carboxylic acid], the IC50 was under 1 µM. For the compound `NC(=O)c1ncc(-c2cccc(C(=O)Nc3ccc(OCCc4ccccc4)cc3)c2)cc1C(=O)O` [Example 29, 2-Carbamoyl-5-(3-((4-phenethoxyphenyl)carbamoyl)phenyl)nicotinic acid], the concentration for half-maximal inhibition (IC50) was in the range of 1 to 10 µM.

Regarding `CS(=O)(=O)Nc1ncc(-c2cccc(C(=O)Nc3ccc(OCCc4ccccc4)cc3)c2)cc1C(=O)O` [Example 30, 2-(Methylsulfonamido)-5-(3-((4-phenethoxyphenyl)carbamoyl)phenyl)nicotinic acid], the 50% inhibitory concentration (IC50) was under 1 µM.

For the origin of these results see patent US20260216198A1, “GPR35 MODULATORS” (ThirtyFiveBio Limited, priority 2023, published 2026).
